Patent EP4559923A1, “ANTIHISTAMINE COMPOUND, AND PREPARATION METHOD THEREFOR AND USE THEREOF” (HC Synthetic Pharmaceutical Co., Ltd., priority 2022, dated 2024)
In brackets after ≈: the same amount, converted by molar mass.

Key:
histamine-induced asthma = experiment: Antiasthmatic effect on histamine-induced asthma in guinea pigs (latency period); assay type: in vivo; details: X±s, n = 5; for Post-administration latency period: 1 mg/kg oral gavage, sixty minutes after administration, histamine hydrochloride spray, no asthma within 8 minutes counted as 8 minutes
Procedure: The guinea pigs were placed in a polymethyl methacrylate bell jar and a histamine hydrochloride solution was sprayed ultrasonically (0.8 mg/mL) for 40 seconds. The time point at which the guinea pigs developed asthma was recorded. The time of convulsion and fall was taken as the latency period. Guinea pigs with a latency period exceeding 180 seconds were not selected. […] The guinea pigs were administered by oral gavage at a dose of 2 mL/kg·bw. Sixty minutes after the administration, the guinea pigs were placed in bell jars, and histamine hydrochloride solution was sprayed under the same conditions as in the previous selection. The latency period for the onset of asthma was recorded. […] The results were processed statistically.

[1] = system: isolated ileal smooth muscle; experiment: Muscle tone of isolated ileal smooth muscle of guinea pigs, compound alone; details: Table 3, no histamine, X±s, n = 8; for Smooth muscle tone (g) After administration: 5 minutes after adding the drug; for Antispasmodic percentage (%): relative to tone before adding compound, 5 min
Procedure: (§1) The guinea pig was knocked unconscious with a wooden stick, and the abdomen was immediately dissected to separate the ileum about 15 cm in length. The contents of the intestinal segment were flushed with Tyrode's solution and placed in Tyrode's solution at a constant temperature of 37°C for later use, and oxygen was supplied simultaneously. The experimental intestinal tract (1 cm in length) was cut and placed into 20 ml of Tyrode's solution at a constant temperature of 37°C with a continuous oxygen supply. One end of the intestine was fixed on the ventilation hook and the other end was connected to the muscle tone transducer and led to the computer interface. The muscle tone value of the ileal smooth muscle was recorded with a BL system. The experiment was carried out after the intestinal segment contraction became stable.
After the ileum contraction curve stabilized, the tone values before adding the drug were recorded, then the drug or DMSO was added, and the average tone value of the ileum contraction curve at that point was recorded 5 minutes later. The operation was repeated 8 times. The antispasmodic percentage was calculated according to the following formula. Antispasmodic percentage =; (Tone value before adding subject compound−Tone value after adding subject compound)/(Tone value before adding subject compound) × 100% [formula]

[2] = Solubility in water, methanol and isopropanol; details: for solubility Isopropanol: in isopropanol; for solubility Water: in water; for solubility Methanol: in methanol
Procedure: The solubility in water, methanol, and isopropanol of the compounds of the present disclosure and the comparative compounds were measured separately.

histamine = experiment: Muscle tone of isolated ileal smooth muscle of guinea pigs contracted with histamine; details: Table 4, x±s, n = 8; for Antispasmodic percentage (%): relative to tone after adding histamine, 3 min; for Smooth muscle tone (g) After addition of histamine: after 0.05 mL of histamine, before compound; for Smooth muscle tone (g) Before administration: before histamine and compound
Procedure: as §1
(§2) After the ileal peristalsis curve stabilized, the tone values before adding the compound were recorded, and then 0.05 mL of histamine was added. […] The operation was repeated 8 times. The antispasmodic percentage was calculated using the following equation. Antispasmodic percentage; = (Tone value after adding histamine−Tone value after adding subject compound)/(Tone value after adding histamine) × 100% [formula]

[3] = as above; details: Table 4; 3 minutes after adding 0.05 mL compound at maximum histamine contraction; x±s, n = 8
Procedure: as §1, §2

[4] = Accelerated stability test; assay type: physicochemical; details: 40°C ± 2°C, relative humidity 75% ± 5%

Compound	Post-administration latency period (histamine-induced asthma)	Smooth muscle tone (g) After administration [1]	solubility Isopropanol [2]	Antispasmodic percentage (%) (histamine)	Smooth muscle tone (g) After administration [3]	Antispasmodic percentage (%) [1]	solubility Water [2]	other results
O=P(O)(O)OCCCCN1CCC(=C2c3ccc(Cl)cc3CCc3cccnc32)CC1 [Compound III-10]	370.80 ± 51.23 s	1.15 ± 0.26 g	25 mg/mL (≈ 54 mM)	65.24±18.39%	1.22 ± 0.19 g	–	–	–
O=P(O)(O)OCCCCCN1CCC(=C2c3ccc(Cl)cc3CCc3cccnc32)CC1 [Compound III-13]	366.81 ± 53.10 s	1.21 ± 0.26 g	25 mg/mL (≈ 52.4 mM)	65.58±18.20%	1.17 ± 0.20 g	32.02±16.85%	32 mg/mL (≈ 67.1 mM)	Pre-administration latency period (histamine-induced asthma; baseline before dosing, histamine hydrochloride spray 0.8 mg/mL for 40 seconds): 104.38 ± 50.27 s; Smooth muscle tone (g) Before administration ([1]; before adding the drug): 1.78 ± 0.25 g; Smooth muscle tone (g) After addition of histamine (histamine): 3.40 ± 0.98 g; Smooth muscle tone (g) Before administration (histamine): 1.80 ± 0.16 g
O=P(O)(O)OCCCCN1CCC(=C2c3ccc(Cl)cc3CCc3cccnc32)CC1 [Compound IV-4]	380.22 ± 51.19 s	1.14 ± 0.21 g	–	66.76±19.71%	1.16 ± 0.22 g	33.33±20.91%	–	Content ([4]; Month 0): 99.6%; Description ([4]; Month 0): White powder; Related substances ([4]; Month 0): 0.03%; Description ([4]; Month 1): White powder; Related substances ([4]; Month 1): 0.04%; Description ([4]; Month 2): White powder; Related substances ([4]; Month 2): 0.05%; Description ([4]; Month 3): White powder; Related substances ([4]; Month 3): 0.06%; Description ([4]; Month 6): White powder; Related substances ([4]; Month 6): 0.10%; remaining at 730 h ([4]; storage 75% relative humidity, Month 1, read-out: Content): 99.6%; remaining at 1460 h ([4]; storage 75% relative humidity, Month 2, read-out: Content): 99.6%; remaining at 2190 h ([4]; storage 75% relative humidity, Month 3, read-out: Content): 99.6%; remaining at 4380 h ([4]; storage 75% relative humidity, Month 6, read-out: Content): 99.5%; solubility ([2]; water): 402 mg/mL (≈ 868 mM)
O=P(O)(O)OCCCCN1CCC(=C2c3ccc(Cl)cc3CCc3cccnc32)CC1 [Compound IV-5]	362.49 ± 50.00 s	1.19 ± 0.27 g	1 mg/mL (≈ 2.16 mM)	65.70±20.11%	1.19 ± 0.23 g	31.60±20.10%	386 mg/mL (≈ 834 mM)	Content ([4]; Month 0): 99.5%; Description ([4]; Month 0): White powder; Related substances ([4]; Month 0): 0.03%; Description ([4]; Month 1): White powder; Related substances ([4]; Month 1): 0.06%; Content ([4]; Month 1, 43800 min): 99.5%; Description ([4]; Month 2): White powder; Related substances ([4]; Month 2): 0.10%; Content ([4]; Month 2, 87600 min): 99.4%; Description ([4]; Month 3): White powder; Related substances ([4]; Month 3): 0.13%; Content ([4]; Month 3, 131400 min): 99.4%; Description ([4]; Month 6): White powder; Related substances ([4]; Month 6): 0.28%; Content ([4]; Month 6, 262800 min): 99.2%; solubility Methanol [2]: 22 mg/mL (≈ 47.5 mM)
O=P(O)(O)OCCCCCN1CCC(=C2c3ccc(Cl)cc3CCc3cccnc32)CC1 [Compound IV-6]	361.94 ± 53.19 s	1.14 ± 0.25 g	5 mg/mL (≈ 10.5 mM)	65.80±19.03%	1.18 ± 0.21 g	34.10±18.93%	367 mg/mL (≈ 769 mM)	solubility Methanol [2]: 30 mg/mL (≈ 62.9 mM)
OCCCCN1CCC(=C2c3ccc(Cl)cc3CCc3cccnc32)CC1 [Hydroxybutyl desloratadine, hydroxybutyl desloratadine, reference compound]	279.71 ± 54.91 s	1.30 ± 0.23 g	–	–	1.44 ± 0.44 g	23.53±12.32%	Practically insoluble	Smooth muscle tone (g) After addition of histamine (histamine): 3.41 ± 0.92 g; Smooth muscle tone (g) Before administration (histamine): 1.73 ± 0.12 g
OCCN1CCC(=C2c3ccc(Cl)cc3CCc3cccnc32)CC1 [Hydroxyethyl desloratadine, hydroxyethyl desloratadine, reference compound]	284.11 ± 59.10 s	1.30 ± 0.30 g	–	57.94±11.45%	1.43 ± 0.41 g	23.97±10.32%	Practically insoluble	–
OCCCCCCN1CCC(=C2c3ccc(Cl)cc3CCc3cccnc32)CC1 [Hydroxyhexyl desloratadine, hydroxyhexyl desloratadine, reference compound]	283.84 ± 58.88 s	1.26 ± 0.23 g	–	–	1.43 ± 0.43 g	26.31±13.96%	Practically insoluble	–
OCCCCCN1CCC(=C2c3ccc(Cl)cc3CCc3cccnc32)CC1 [Hydroxypentyl desloratadine, hydroxypentyl desloratadine, reference compound]	280.29 ± 58.19 s	1.24 ± 0.22 g	–	–	1.41 ± 0.42 g	28.73±11.32%	Practically insoluble	–
OCCCN1CCC(=C2c3ccc(Cl)cc3CCc3cccnc32)CC1 [Hydroxypropyl desloratadine, hydroxypropyl desloratadine, reference compound]	288.33 ± 58.12 s	1.28 ± 0.25 g	–	–	1.41 ± 0.42 g	24.70±13.43%	Practically insoluble	–
